Molecular target: AsiA (Enterobacteria phage T4, UniProt P32267)
Conditions: His-tagged σ fragment on Ni2+-NTA beads, imidazole elution
Protocol: The complementary experiment was done using wild type, untagged AsiA. Instead, a synthetic hexahistidine tag was chemically ligated to the N-terminus of σ568-600 as described herein. AsiA and His-tagged σ fragment were loaded on Ni^2+NTA beads, the beads were washed and eluted with increasing concentrations of imidazole in the buffer.
100 μl reactions contained 15 μl of Ni^2+-NTA agarose (Qiagen), 50-100 pmol σ^70 or σ^70 derivative, 200 pmol AsiAHis, 20 mM Tris-HCl, pH 7.9, 100 mM KCl, 10 mM MgCl2. Reactions were preincubated for 15 min at room temperature, after which the beads were pelleted by brief centrifugation and the supernatant, containing the unbound material was removed. The beads were then washed three times with the same buffer containing 10 mM imidazole, pH 8.0, resuspended in 50 μl of the buffer containing 100 mM imidazole and incubated for additional 15 min at room temperature. The supernatant containing the bound material was then withdrawn. Aliquots of the reactions were then analyzed on 8-25% Phast gels (Pharmacia) and silver stained.

AsiA, sequence (P32267 whole entry, the tested form may be a part): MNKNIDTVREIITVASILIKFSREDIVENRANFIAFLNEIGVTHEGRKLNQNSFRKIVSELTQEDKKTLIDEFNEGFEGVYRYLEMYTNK

Q: How did the “interaction with wild type, untagged AsiA” value turn out when “His6-Cys-[SCH2]-aminocaproate-σ568-600 [His-tagged σ568-600]” was run?
A: The value was “strong interaction”.

Source: patent US6875594B2, “Methods of ligating expressed proteins” (The Rockefeller University, priority 1997, dated 2005)
